Experiment [1] concerns the target T1, Adenosine receptor A1 (Homo sapiens, UniProt P30542).
T1 sequence (P30542 whole entry): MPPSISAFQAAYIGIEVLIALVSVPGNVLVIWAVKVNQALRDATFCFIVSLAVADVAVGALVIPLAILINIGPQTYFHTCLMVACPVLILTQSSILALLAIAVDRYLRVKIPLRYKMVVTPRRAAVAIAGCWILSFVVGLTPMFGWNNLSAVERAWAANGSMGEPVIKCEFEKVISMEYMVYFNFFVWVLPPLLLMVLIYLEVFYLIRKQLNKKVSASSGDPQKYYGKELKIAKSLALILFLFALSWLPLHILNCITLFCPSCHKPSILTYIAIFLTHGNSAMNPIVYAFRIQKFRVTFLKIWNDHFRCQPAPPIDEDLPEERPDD

Experiment [2] concerns the target T2, Type-1 angiotensin II receptor (Homo sapiens, UniProt P30556).
T2 sequence (P30556 whole entry): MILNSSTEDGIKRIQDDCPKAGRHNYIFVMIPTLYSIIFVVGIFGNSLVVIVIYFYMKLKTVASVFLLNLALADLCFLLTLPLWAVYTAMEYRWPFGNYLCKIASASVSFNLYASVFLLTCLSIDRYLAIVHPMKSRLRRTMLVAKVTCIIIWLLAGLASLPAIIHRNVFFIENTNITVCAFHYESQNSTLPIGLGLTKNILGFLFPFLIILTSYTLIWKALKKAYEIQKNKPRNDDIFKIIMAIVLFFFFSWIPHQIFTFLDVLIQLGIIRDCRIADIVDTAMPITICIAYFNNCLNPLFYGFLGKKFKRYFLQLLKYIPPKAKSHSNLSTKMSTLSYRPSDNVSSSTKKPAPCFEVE

Experiment [3] has as its target T3, Cholecystokinin receptor type A (Homo sapiens, UniProt P32238).
T3 sequence (P32238 whole entry): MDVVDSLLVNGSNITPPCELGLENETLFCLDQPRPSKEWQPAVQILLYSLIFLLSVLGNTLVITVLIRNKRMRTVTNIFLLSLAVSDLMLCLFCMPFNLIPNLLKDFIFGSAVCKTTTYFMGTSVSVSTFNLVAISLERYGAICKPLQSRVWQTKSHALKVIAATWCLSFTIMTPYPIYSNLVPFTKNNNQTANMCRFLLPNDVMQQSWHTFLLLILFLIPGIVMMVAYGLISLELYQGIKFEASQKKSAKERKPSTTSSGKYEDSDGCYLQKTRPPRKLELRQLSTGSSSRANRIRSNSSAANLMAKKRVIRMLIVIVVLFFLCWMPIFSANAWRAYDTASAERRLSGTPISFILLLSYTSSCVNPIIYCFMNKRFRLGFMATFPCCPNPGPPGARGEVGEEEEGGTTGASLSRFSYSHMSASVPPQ

Experiment [4] has as its target T4, Muscarinic acetylcholine receptor M2 (Homo sapiens, UniProt P08172).
T4 sequence (P08172 whole entry): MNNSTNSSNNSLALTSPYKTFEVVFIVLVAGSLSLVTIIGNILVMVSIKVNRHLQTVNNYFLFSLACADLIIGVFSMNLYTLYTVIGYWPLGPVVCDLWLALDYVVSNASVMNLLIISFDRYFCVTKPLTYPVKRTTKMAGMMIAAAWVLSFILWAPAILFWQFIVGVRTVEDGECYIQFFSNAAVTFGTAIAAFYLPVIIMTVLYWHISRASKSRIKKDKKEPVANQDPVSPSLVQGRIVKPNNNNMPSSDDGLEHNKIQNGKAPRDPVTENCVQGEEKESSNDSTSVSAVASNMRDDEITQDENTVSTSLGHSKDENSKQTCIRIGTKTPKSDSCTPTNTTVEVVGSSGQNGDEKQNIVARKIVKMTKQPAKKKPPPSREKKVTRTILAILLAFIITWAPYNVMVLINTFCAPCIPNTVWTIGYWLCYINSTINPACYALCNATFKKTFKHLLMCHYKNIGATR
It is filed as functional, cell-based.

The target in experiment [5] is Neuronal acetylcholine receptor subunit alpha-4 (Homo sapiens, UniProt P43681).
Experiment [6] addresses Histamine H1 receptor (Homo sapiens, UniProt P35367).
For experiment [7], the target named is 5-hydroxytryptamine receptor 2A (Homo sapiens, UniProt P28223). The class given is functional, cell-based.
For experiment [8], the target named is T5, 5-hydroxytryptamine receptor 3A (Homo sapiens, UniProt P46098).
T5 sequence (P46098 whole entry): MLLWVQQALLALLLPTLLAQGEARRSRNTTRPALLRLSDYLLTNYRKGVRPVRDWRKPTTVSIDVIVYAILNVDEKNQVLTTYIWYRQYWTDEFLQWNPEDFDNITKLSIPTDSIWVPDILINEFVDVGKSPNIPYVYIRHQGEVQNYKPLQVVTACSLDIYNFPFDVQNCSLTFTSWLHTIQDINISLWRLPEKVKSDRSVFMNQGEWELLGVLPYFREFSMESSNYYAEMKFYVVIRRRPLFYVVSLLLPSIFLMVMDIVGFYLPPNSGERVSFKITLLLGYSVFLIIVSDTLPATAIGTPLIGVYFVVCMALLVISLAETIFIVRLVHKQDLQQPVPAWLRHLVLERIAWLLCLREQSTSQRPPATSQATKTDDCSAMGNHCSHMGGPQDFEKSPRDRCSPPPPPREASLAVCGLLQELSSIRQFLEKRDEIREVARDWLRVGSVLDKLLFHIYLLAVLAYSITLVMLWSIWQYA
It is filed as functional.

The target of experiment [9] is Delta-type opioid receptor (Homo sapiens, UniProt P41143).
Experiment [10] has as its target T6, Equilibrative nucleoside transporter 1 (Homo sapiens, UniProt Q99808).
T6 sequence (Q99808 whole entry): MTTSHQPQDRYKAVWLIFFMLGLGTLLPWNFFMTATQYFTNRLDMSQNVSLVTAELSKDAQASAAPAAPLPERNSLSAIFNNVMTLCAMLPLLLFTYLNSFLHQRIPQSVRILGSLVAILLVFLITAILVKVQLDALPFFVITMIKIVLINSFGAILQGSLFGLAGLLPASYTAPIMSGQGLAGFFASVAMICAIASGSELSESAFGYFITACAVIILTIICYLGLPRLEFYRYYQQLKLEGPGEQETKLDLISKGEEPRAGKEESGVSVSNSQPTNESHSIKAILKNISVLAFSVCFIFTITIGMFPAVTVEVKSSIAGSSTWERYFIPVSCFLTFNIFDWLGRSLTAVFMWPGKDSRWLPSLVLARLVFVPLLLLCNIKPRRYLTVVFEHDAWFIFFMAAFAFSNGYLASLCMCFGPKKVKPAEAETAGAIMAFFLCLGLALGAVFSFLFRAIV

We go through 11 compounds from ChEMBL document CHEMBL5291721, “A preclinical secondary pharmacology resource illuminates target-adverse drug reaction associations of marketed drugs” (Nat Commun, 2023).

Structures are written as SMILES.
Note: assay procedure not described here.

Histamine H1 receptor, sequence (P35367 whole entry): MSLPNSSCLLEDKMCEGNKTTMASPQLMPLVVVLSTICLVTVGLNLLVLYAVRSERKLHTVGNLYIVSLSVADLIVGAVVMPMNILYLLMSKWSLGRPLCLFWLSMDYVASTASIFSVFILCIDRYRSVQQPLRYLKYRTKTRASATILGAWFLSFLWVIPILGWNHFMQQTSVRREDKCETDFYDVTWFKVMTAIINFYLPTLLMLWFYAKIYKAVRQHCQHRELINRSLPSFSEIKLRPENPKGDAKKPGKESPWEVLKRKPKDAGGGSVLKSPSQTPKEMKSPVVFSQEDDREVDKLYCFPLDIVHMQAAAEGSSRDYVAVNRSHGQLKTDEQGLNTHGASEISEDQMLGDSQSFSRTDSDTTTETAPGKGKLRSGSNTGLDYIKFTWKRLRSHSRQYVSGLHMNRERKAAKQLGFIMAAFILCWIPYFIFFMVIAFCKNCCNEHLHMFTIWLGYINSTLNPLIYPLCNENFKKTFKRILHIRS
5-hydroxytryptamine receptor 2A, sequence (P28223 whole entry): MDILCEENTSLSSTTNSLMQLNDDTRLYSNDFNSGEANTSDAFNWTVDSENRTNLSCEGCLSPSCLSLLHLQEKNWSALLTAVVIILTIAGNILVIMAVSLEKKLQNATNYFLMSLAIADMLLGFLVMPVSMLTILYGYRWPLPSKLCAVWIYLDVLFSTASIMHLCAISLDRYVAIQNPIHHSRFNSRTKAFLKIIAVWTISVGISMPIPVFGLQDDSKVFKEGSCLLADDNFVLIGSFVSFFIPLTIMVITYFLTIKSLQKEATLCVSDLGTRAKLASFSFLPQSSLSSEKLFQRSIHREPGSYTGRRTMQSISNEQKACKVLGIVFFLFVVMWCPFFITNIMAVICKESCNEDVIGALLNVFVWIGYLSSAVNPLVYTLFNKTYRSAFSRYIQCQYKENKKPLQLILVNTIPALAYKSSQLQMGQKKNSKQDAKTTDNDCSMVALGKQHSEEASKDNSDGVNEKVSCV
Delta-type opioid receptor, sequence (P41143 whole entry): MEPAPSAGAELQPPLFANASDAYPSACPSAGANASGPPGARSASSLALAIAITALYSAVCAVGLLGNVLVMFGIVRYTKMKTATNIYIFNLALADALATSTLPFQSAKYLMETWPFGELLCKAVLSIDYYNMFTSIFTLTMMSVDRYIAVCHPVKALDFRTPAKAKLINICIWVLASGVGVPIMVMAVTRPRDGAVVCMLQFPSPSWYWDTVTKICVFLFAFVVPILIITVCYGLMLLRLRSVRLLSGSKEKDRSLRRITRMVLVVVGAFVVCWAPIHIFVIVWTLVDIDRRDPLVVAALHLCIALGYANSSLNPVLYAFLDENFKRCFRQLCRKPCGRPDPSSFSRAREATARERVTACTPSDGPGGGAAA
Neuronal acetylcholine receptor subunit alpha-4, sequence (P43681 whole entry): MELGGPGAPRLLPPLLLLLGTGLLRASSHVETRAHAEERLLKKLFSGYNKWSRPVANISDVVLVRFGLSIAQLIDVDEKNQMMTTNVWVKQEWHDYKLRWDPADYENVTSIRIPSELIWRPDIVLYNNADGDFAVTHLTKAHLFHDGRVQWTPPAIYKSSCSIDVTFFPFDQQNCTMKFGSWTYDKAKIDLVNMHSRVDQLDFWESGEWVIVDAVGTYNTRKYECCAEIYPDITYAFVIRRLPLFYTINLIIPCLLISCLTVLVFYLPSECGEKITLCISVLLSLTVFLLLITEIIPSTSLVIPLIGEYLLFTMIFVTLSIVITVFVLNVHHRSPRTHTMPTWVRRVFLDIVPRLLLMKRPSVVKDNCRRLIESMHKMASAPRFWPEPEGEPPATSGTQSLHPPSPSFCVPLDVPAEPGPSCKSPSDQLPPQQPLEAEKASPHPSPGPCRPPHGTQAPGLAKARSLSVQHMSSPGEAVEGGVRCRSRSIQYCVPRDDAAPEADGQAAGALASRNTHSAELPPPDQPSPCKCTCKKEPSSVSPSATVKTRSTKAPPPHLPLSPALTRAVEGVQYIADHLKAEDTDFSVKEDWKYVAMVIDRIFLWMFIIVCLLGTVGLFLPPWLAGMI

Consider `CCCCc1ncc(/C=C(\Cc2cccs2)C(=O)O)n1Cc1ccc(C(=O)O)cc1` [EPROSARTAN], for which the AC50 was above 10 µM in experiment [1]; 0.0019 µM in [2]; above 30 µM in experiment [3]; above 10 µM in experiment [4]; above 10 µM in experiment [5]; above 10 µM in experiment [6]. Moreover, the AC50 in experiment [7] is above 30 µM; in experiment [8], above 10 µM; in experiment [9], above 10 µM; in experiment [10], above 10 µM.

For the compound `C[C@]1(O)CC[C@H]2[C@@H]3CCC4=CC(=O)CC[C@]4(C)[C@@]3(F)[C@@H](O)C[C@@]21C` [FLUOXYMESTERONE], the AC50 in experiment [1] was above 10 µM; in experiment [2], above 10 µM; in [3], above 10 µM; in experiment [4], above 10 µM; in experiment [5] it was above 10 µM; in experiment [6] it was above 30 µM. Besides, the AC50 in [7] is above 10 µM; in experiment [8] it was above 30 µM; in experiment [9], above 30 µM; in experiment [10], above 10 µM.

As for `CCCC(=O)O[C@]1(C(=O)CO)CC[C@H]2[C@@H]3CCC4=CC(=O)CC[C@]4(C)[C@H]3[C@@H](O)C[C@@]21C` [HYDROCORTISONE BUTYRATE], the half-maximal activity concentration (AC50) in [1], in experiment [2], in [3], in experiment [4], in experiment [5] and in [6] was above 10 µM throughout. In addition, the concentration at half-maximal activity (AC50) was above 10 µM in experiment [7], above 30 µM in experiment [8], above 30 µM in [9] and above 10 µM in experiment [10].

With `CC(C)C(=O)c1c(C(C)C)nn2ccccc12` [IBUDILAST], the AC50 is 20 µM in [1]; above 30 µM in experiment [2]; above 30 µM in [3]; above 30 µM in [4]; above 30 µM in experiment [5]; above 30 µM in experiment [6]. For the same compound, the half-maximal activity concentration (AC50) in experiment [7], in experiment [8], in experiment [9] and in [10] was above 30 µM in each case.

Turning to `CCC(C(=O)O)c1ccc(N2Cc3ccccc3C2=O)cc1` (stereo not given) [INDOBUFEN], the AC50 in experiment [1], in [2], in [3], in [4], in [5] and in experiment [6] was above 30 µM throughout. Also, the AC50 in experiment [7], in experiment [8], in [9] and in experiment [10] was above 30 µM throughout.

On to `CC(C(=O)O)c1ccc(N2Cc3ccccc3C2=O)cc1` (stereo not given) [INDOPROFEN], for which the half-maximal activity concentration (AC50) in experiment [1], in [2], in [3], in experiment [4], in [5] and in experiment [6] was above 30 µM throughout. Further, the half-maximal activity concentration (AC50) in [7], in [8], in experiment [9] and in experiment [10] was above 30 µM throughout.

Regarding `CO[C@@H]1[C@@H](O[C@@H]2O[C@H](C)[C@@H](O[C@H]3C[C@@](C)(O)[C@@H](OC(=O)CC(C)C)[C@H](C)O3)[C@H](N(C)C)[C@H]2O)[C@@H](CC=O)C[C@@H](C)[C@@H](O)/C=C/C=C/C[C@@H](C)OC(=O)C[C@H]1OC(C)=O` [JOSAMYCIN], the half-maximal activity concentration (AC50) in [1], in [2], in experiment [3], in [4], in [5] and in [6] was above 10 µM each time. The AC50 was above 10 µM in experiment [7], above 30 µM in experiment [8], above 30 µM in experiment [9] and above 10 µM in experiment [10].

On to `CC(C)OC(=O)CCC/C=C\C[C@@H]1[C@@H](CC[C@@H](O)CCc2ccccc2)[C@H](O)C[C@@H]1O` [LATANOPROST], for which the AC50 in experiment [1], in experiment [2], in [3], in [4], in [5] and in [6] was above 30 µM each time. Further, the AC50 in [7], in experiment [8], in experiment [9] and in experiment [10] was above 30 µM each time.

With `COC(=O)C1=C(C)NC(C)=C(C(=O)OC(C)(C)CN(C)CCC(c2ccccc2)c2ccccc2)C1c1cccc([N+](=O)[O-])c1` (stereo not given) [LERCANIDIPINE], the AC50 in experiment [1] is above 30 µM; in experiment [2], above 30 µM; in [3], above 30 µM; in [4], above 30 µM; in [5], above 30 µM; in experiment [6], 6.4 µM. Moreover, the half-maximal activity concentration (AC50) in [7], in [8], in experiment [9] and in experiment [10] was above 30 µM each time.

Take `CC(Oc1c(Cl)cccc1Cl)C1=NCCN1` (stereo not given) [LOFEXIDINE]: the concentration at half-maximal activity (AC50) in [1], in [2], in experiment [3], in experiment [4], in experiment [5] and in experiment [6] was above 30 µM each time. In addition, the half-maximal activity concentration (AC50) in [7], in [8], in experiment [9] and in experiment [10] was above 30 µM throughout.

For the compound `CC(C)=CCC/C(C)=C/C=C/C(C)=C/C=C/C(C)=C/C=C/C=C(C)/C=C/C=C(C)/C=C/C=C(\C)CCC=C(C)C` [LYCOPENE], the AC50 in experiment [1], in experiment [2], in experiment [3], in experiment [4], in experiment [5] and in [6] was above 30 µM in each case. Besides, the half-maximal activity concentration (AC50) in [7], in [8], in experiment [9] and in [10] was above 30 µM in each case.
